# Data: PubChem BioAssay (NCI)
# Several values for one entry are separate records, joined by “and”; a condition that tells them apart may be missing. Equal values may be shown once.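 Following 48 hours of exposure in 96-well plates, responses at five concentrations were used to interpolate endpoints linearly. At the GI50, growth is halved. The concentration for full growth arrest is given as TGI.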
# How the values were obtained:
# Assay in all cases: inhibition of tumour cell growth, NCI panel, 48 h
# HT29 colon = test system: HT29 colon
# SNB-75 CNS = test system: SNB-75 CNS
# UACC-257 melanoma = test system: UACC-257 melanoma
# CAKI-1 renal = test system: CAKI-1 renal
# SR leukemia = test system: SR leukemia
# SN12C renal = test system: SN12C renal
# ACHN renal = test system: ACHN renal
# MCF7 breast = test system: MCF7 breast
# RPMI-8226 leukemia = test system: RPMI-8226 leukemia
# KM12 colon = test system: KM12 colon
SMILES,GI50 (HT29 colon),TGI (HT29 colon),GI50 (SNB-75 CNS),TGI (SNB-75 CNS),GI50 (UACC-257 melanoma),TGI (UACC-257 melanoma),GI50 (CAKI-1 renal),TGI (CAKI-1 renal),GI50 (SR leukemia),TGI (SR leukemia) [µM],GI50 (SN12C renal),TGI (SN12C renal),GI50 (ACHN renal),TGI (ACHN renal),GI50 (MCF7 breast),TGI (MCF7 breast),GI50 (RPMI-8226 leukemia),GI50 (KM12 colon),TGI (KM12 colon),TGI (RPMI-8226 leukemia)
COC(=O)Nc1nc2ccc(C(=O)c3ccc(F)cc3)cc2[nH]1,0.0785 µM,> 100 µM,0.205 µM,12.4 µM,68 µM,> 100 µM,2.34 µM,> 36.4 µM,0.0442 µM,> 100,0.841 µM,> 100 µM,1.05 µM,> 100 µM,0.0867 µM,> 100 µM,0.434 µM,–,–,–
C[C@]12CC[C@H]3[C@@H](CC[C@]4(O)C[C@@H](O[C@@H]5O[C@H](CO)[C@@H](O[C@@H]6OC[C@@H](O)[C@H](O)[C@H]6O)[C@H](O)[C@H]5O)CC[C@]34C=O)[C@@]1(O)CC[C@@H]2C1=CC(=O)OC1,1.82 µM,5.71 µM,1.15 µM,6.65 µM,2.34 µM,9.02 µM,0.886 µM,2.26 µM,1.06 µM,3.27,0.414 µM,2.49 µM,0.306 µM,1.88 µM,1.3 µM,7.57 µM,1.9 µM,1.98 µM,8.23 µM,14.6 µM
COc1ccc(/C=C/C(=O)/C=C(O)/C=C/c2ccc(OC)c(OC)c2)cc1OC,3.64 µM,22.3 µM,16.5 µM,69 µM,33.9 µM,64.8 µM,3.55 µM,23 µM,1.68 µM,> 100,3.5 µM,90.9 µM,6.97 µM,> 100 µM,0.493 µM,> 100 µM,0.559 µM,2.84 µM,> 100 µM,6.85 µM
COc1cc(C)[nH]c(=O)c1CNC(=O)c1c(C)n([C@H](C)C2CCN(CC(F)(F)F)CC2)c2ccccc12,38.5 µM,> 100 µM,36.1 µM,> 100 µM,54.2 µM,> 100 µM,–,–,51.8 µM,> 100,43 µM,> 100 µM,–,–,25.7 µM,> 100 µM,32.5 µM,41.6 µM,> 100 µM,> 100 µM
CCn1ncc(N=O)c1N,–,> 100 µM,22 µM and 58 µM,> 100 µM,–,> 100 µM,–,> 100 µM,–,> 100,–,> 100 µM,–,> 100 µM,–,> 100 µM,–,–,> 100 µM,> 100 µM
COc1ccc(/C=C\c2cc(OC)c(OC)c(OC)c2)c(NS(=O)(=O)c2ccc(F)cc2)c1O,2.28 µM,20.5 µM,0.0349 µM,> 100 µM,20.5 µM,> 100 µM,0.115 µM,> 100 µM,0.041 µM,> 68.1,0.18 µM,> 100 µM,0.189 µM,96.9 µM,0.0483 µM,> 46.3 µM,0.0448 µM,0.0556 µM,> 100 µM,18.9 µM
Nc1c(C(=O)Nc2cccc(C(F)(F)F)c2)sc2nc3c(cc12)CCCCCC3,3.24 µM,32.4 µM,1.73 µM,3.47 µM,4.37 µM,22.7 µM,2.49 µM,10.2 µM,3.77 µM,19,3.15 µM,13 µM,1.85 µM,4.46 µM,2.44 µM,11.2 µM,2.96 µM,4.08 µM,23.5 µM,17.5 µM
Nc1nc(N)c2c(n1)CCC(S(=O)(=O)c1ccc3ccccc3c1)C2 (stereo not drawn),–,> 51.2 µM,12.2 µM,> 100 µM,–,> 100 µM,–,> 100 µM,–,17.8,–,> 100 µM,–,> 100 µM,–,> 100 µM,–,–,> 100 µM,> 84.4 µM
COc1cc2c(cc1[N+](=O)[O-])C(=O)C(Br)(Br)CCC2,–,11.2 µM,–,25.8 µM,–,26.7 µM,–,7.8 µM,–,4.96,–,5.16 µM,–,4.47 µM,–,5.33 µM,–,–,15.2 µM,4.07 µM
O=C1OCC2=C1C(c1cccc(Cl)c1)c1cc3c(cc1N2CCO)CCC3 (stereo not drawn),0.0313 µM,0.095 µM,0.027 µM,17.7 µM,0.0354 µM,15.6 µM,0.0493 µM,14.7 µM,0.0609 µM,21,0.0759 µM,11.9 µM,0.0846 µM,14.6 µM,0.0363 µM,12.9 µM,0.0386 µM,0.0402 µM,4.05 µM,10.1 µM
c1ccc(CC(Nc2cccnc2)c2ccccc2)cc1 (stereo not drawn),–,32.6 µM,–,60.1 µM,–,49.8 µM,–,> 100 µM,–,50.9,–,50.8 µM,–,> 100 µM,–,> 100 µM,–,–,70.2 µM,56.5 µM
CCC(C)C1NC(=O)C(NC(=O)C(CC(C)C)N(C)C(=O)[C@@H]2CC(O)CN2C(=O)[C@H](C)O)C(C)OC(=O)[C@H](Cc2ccc(OC)cc2)N(C)C(=O)[C@@H]2CCCN2C(=O)[C@H](CC(C)C)NC(=O)C(C)C(=O)[C@H](C(C)C)OC(=O)CC1O (stereo partly drawn),0.0169 µM,2.23 µM and 1.09 µM,0.0338 µM,1.25 µM and 0.614 µM,0.0768 µM,1.94 µM and 1.85 µM,0.229 µM,2.99 µM,0.0189 µM,> 100,0.0572 µM,0.806 µM and 3.2 µM,0.131 µM,8.74 µM and 5.22 µM,< 0.01 µM,–,0.0695 µM,< 0.01 µM,0.735 µM and 0.173 µM,1.77 µM
CC/C(=C(/c1ccc(OCCN(C)C)cc1)c1ccc(OC(=O)CCCCCCCCC(=O)c2c(C)[nH]c(/C=C3\N=C(c4ccc[nH]4)C=C3OC)c2C)cc1)c1ccccc1,5.18 µM,> 100 µM,6.25 µM,> 100 µM,62.5 µM,> 100 µM,7 µM,> 100 µM,4.1 µM,> 100,7.55 µM,> 100 µM,7.82 µM,> 100 µM,0.161 µM,10.9 µM,3.75 µM,5.25 µM,> 100 µM,> 100 µM
COC(=O)c1cccc(NC(=O)c2ccc(NC3=C(Cl)C(=O)N(Cc4ccccc4)C3=O)cc2)c1,21.1 µM,> 100 µM,18.3 µM,62.6 µM,15.4 µM,50.2 µM,1.72 µM,3.14 µM,1.87 µM,7.56,4.69 µM,23.6 µM,–,–,22.3 µM,49.7 µM,10.7 µM,19.7 µM,41.7 µM,23.9 µM
CC1(C)C(CC(=O)O)CCCC1CC(=O)O (stereo not drawn),–,> 100 µM,–,–,–,> 100 µM,–,> 100 µM,–,> 100,–,> 100 µM,–,> 100 µM,–,> 100 µM,–,–,> 100 µM,> 100 µM
COc1c(B(O)O)cccc1-c1nc2c(F)cc3n[nH]c(C)c3c2c2c1CCCC2,1.95 µM,> 50 µM,0.0152 µM,0.168 µM,2.08 µM,> 40.8 µM,0.0106 µM,0.213 µM,0.964 µM,> 24.3,0.854 µM,> 50 µM,0.534 µM,> 50 µM,1.43 µM,> 50 µM,0.655 µM,1.31 µM,> 50 µM,4.81 µM
Cc1cc(C)c2c(c1)N(C)c1ncnc(-n3cnc4cc(C)ccc43)c1CC2C (stereo not drawn),3.13 µM,10.5 µM,2.8 µM,13.2 µM,11.5 µM,38.5 µM,3.37 µM,70.2 µM,0.787 µM,8.62,4.37 µM,19.7 µM,4.07 µM,18.3 µM,3.42 µM,> 100 µM,2.59 µM,3.67 µM,26 µM,9.08 µM
C[C@]12CC[C@@H]3c4ccc(OC(=O)N(CCCl)CCCl)cc4CC[C@H]3[C@@H]1CC[C@@H]2OP(=O)(O)O,33.7 µM,> 100 µM,29.2 µM,> 66.7 µM,44.5 µM,> 80.6 µM,> 77.1 µM,> 100 µM,9.82 µM,33.3,17.2 µM,40.1 µM,62.6 µM,> 100 µM,> 100 µM,> 100 µM,39.8 µM,40.3 µM,> 100 µM,> 100 µM
O=C(CN1CCN(C(=O)c2ccco2)CC1)Nc1ccc(Cl)cc1C(=O)c1ccccc1Cl,6.23 µM,22.3 µM,2.73 µM,28.3 µM,12.5 µM,31.8 µM,0.0273 µM,6.42 µM,0.896 µM,2.76,14.6 µM,44.7 µM,10.3 µM,43.7 µM,5.31 µM,21.7 µM,1.33 µM,7.33 µM,20.9 µM,12.1 µM
NC(=O)c1csc(-c2ccc(CO)o2)n1,–,> 100 µM,–,–,–,> 100 µM,–,> 100 µM,–,> 100,–,> 100 µM,–,> 100 µM,–,> 100 µM,–,–,> 100 µM,> 100 µM
CN(C)c1ccc(/C=c2/c3cc(O)ccc3n3c2cc(-c2ccccc2)[n+]3C)cc1,–,3.86 µM,–,1.95 µM,–,3.07 µM,–,> 100 µM,–,4.41,0.187 µM,–,4.78 µM,> 100 µM,1.18 µM,> 100 µM,1.35 µM,–,2.29 µM,–
Cc1cnc(-c2ccc(-c3ccc(NC(=O)Nc4c(F)cc(F)cc4F)cc3F)c3c2C(=O)NC3)[nH]1,0.431 µM and 0.359 µM,2.66 µM and 2.45 µM,2.96 µM,10.9 µM,0.333 µM and 0.97 µM,10.2 µM and 14.5 µM,1.74 µM,27.5 µM,0.0294 µM and < 0.01 µM,–,1.29 µM and 0.432 µM,4.57 µM and 3.41 µM,2.55 µM and 1.35 µM,> 100 µM and 28.6 µM,0.141 µM and 0.41 µM,6.53 µM and 12.8 µM,1.02 µM and 0.715 µM,< 0.01 µM,2.58 µM and 6.87 µM,6.02 µM and > 33 µM
C=CC(=O)N1CCC[C@@H](n2nc(-c3ccc(Oc4ccccc4)cc3)c3c(N)ncnc32)C1,> 7.23 µM,> 10 µM,> 5.6 µM,> 10 µM,> 10 µM,> 10 µM,> 6.12 µM,> 10 µM,> 10 µM,> 10,> 4.69 µM,> 10 µM,0.669 µM,> 10 µM,> 8.82 µM,> 10 µM,> 7.41 µM,> 8.92 µM,> 10 µM,> 10 µM
CC1[C@@H]2CC=C3[C@H]4CCC5Cc6nc7c(nc6C[C@@]5(C)C4CC(=O)[C@]32CO[C@]12OC(C)(C)CC2O)CC1CC[C@@H]2C3=C[C@H]4O[C@@]5(O[C@@](C)(CO)C[C@@H]5O)C(C)[C@@]4(O)[C@]3(C)[C@@H](O)CC2[C@]1(C)C7 (stereo partly drawn),0.00282 µM and 0.00152 µM,0.0487 µM and 0.027 µM,0.000365 µM,–,0.00426 µM,0.0211 µM,–,–,0.000181 µM,0.00856,0.295 µM,0.906 µM and > 3.65 µM,0.00805 µM,0.846 µM,0.000482 µM and 0.00142 µM,–,0.000106 µM and < 0.000365 µM,0.00188 µM and 0.000966 µM,0.0788 µM and 0.0848 µM,0.000261 µM and < 0.000365 µM
Nc1cc(N)c2nc(NCCc3ccc(Cl)c(Cl)c3)cnc2c1,6.47 µM,18.8 µM,14.2 µM,27.2 µM,–,–,4.89 µM,18.2 µM,3.9 µM,20.9,11.7 µM,23.9 µM,14.8 µM,28 µM,3.08 µM,13.3 µM,2.54 µM,13 µM,30.4 µM,7.81 µM
CN1CCN(CCC=C2c3ccccc3Sc3ccc(S(=O)(=O)N(C)C)cc32)CC1,1.42 µM and 0.872 µM,3.26 µM and 2.91 µM,–,–,2.02 µM and 1.8 µM,3.73 µM and 4.03 µM,3.45 µM and 5.41 µM,20.6 µM and 23.9 µM,2.19 µM,7.74,6.23 µM and 13.8 µM,34.6 µM and > 49.3 µM,5.27 µM and 10.2 µM,27.3 µM and 27.6 µM,1.91 µM and 2.81 µM,4 µM and 14 µM,2.33 µM and 2.6 µM,3.96 µM and 4.68 µM,24.3 µM and 16.4 µM,6.55 µM and 8.62 µM
